How the values were obtained:
[1] = system: intracranial GL261 tumors; details: NPs co-loaded with IR780 and BBB modulator, three consecutive days, imaged 24 h after last injection
Experimental: For the intracranial GL261 tumor implantation, 5-6 week old female C57BL6 mice were anesthetized via intraperitoneal injection of ketamine hydrochloride (75 mg/kg, Abbot Laboratories) and xylazine (7.5 mg/kg, Phoenix Pharmaceutical) in sterile saline. Twenty thousand GL261 cells in 2 μL of PBS were injected into the right striatum (1.8 mm lateral to the bregma and 3 mm of depth) using a stereotactic fixation device with mouse adaptor. For the subcutaneous GL261 xenograft model, 1×10^6 GL261 cells in 100 μL of PBS were inoculated subcutaneously into the right flank region of female C57BL6 mice. For the intracranial U87-MG glioma model, 1×10^6 U87-MG cells in 2 μL of PBS was injected into the right striatum of BALB/c nude mice using the same procedures.
(§1) Then the hair on the head was shaved and mice were anesthetized and imaged using the IVIS fluorescence imaging system on day 20. Finally, mice were sacrificed and organs resected for further imaging.
At 24 h after the last injection, the hair on the head was shaved and mice were anesthetized and imaged using an IVIS imaging system (Xenogen). Finally, mice were sacrificed and organs resected for further imaging. The fluorescence signal intensity of excised organs was quantified using Living Image 3.0.
as §1

A1 adenosine receptor = target: T1, A1 adenosine receptor (Homo sapiens, UniProt P30542); details: cited from earlier work
T1 sequence (P30542 1-326): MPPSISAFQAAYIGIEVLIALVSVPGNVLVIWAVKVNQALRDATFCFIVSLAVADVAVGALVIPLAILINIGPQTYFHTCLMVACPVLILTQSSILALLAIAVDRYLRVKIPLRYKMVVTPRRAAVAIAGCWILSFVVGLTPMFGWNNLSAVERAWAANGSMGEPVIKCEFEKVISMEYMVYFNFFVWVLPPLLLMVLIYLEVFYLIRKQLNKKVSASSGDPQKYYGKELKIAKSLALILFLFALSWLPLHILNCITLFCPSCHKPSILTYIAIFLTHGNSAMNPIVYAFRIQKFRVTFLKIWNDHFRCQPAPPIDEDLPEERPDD

A3 adenosine receptor = target: T2, A3 adenosine receptor (Homo sapiens, UniProt P0DMS8); details: cited from earlier work
T2 sequence (P0DMS8 1-318): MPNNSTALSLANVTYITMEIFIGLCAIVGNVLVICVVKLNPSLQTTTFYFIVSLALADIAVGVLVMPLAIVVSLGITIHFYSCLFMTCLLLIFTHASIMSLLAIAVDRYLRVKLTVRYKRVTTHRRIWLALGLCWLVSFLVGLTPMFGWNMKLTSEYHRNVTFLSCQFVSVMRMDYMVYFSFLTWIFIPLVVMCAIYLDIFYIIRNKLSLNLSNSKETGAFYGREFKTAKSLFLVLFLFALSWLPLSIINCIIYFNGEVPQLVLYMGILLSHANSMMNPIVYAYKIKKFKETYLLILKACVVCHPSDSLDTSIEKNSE

A2B adenosine receptor = target: T3, A2B adenosine receptor (Homo sapiens, UniProt P29275); details: cited from earlier work
T3 sequence (P29275 1-332): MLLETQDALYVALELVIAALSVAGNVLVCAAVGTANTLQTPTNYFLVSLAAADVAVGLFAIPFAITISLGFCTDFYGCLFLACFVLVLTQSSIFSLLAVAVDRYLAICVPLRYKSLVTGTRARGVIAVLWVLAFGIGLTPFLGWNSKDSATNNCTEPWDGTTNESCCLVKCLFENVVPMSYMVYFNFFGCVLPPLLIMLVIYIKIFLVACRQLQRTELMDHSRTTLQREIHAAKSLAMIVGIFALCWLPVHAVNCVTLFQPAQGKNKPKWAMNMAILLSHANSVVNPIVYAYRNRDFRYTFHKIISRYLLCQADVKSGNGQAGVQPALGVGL

[2] = system: MDA-MB-231Br brain metastases; assay: Paclitaxel-loaded ABTT NPs in MDA-MB-231Br derived brain metastasis model; assay type: in vivo, mice; details: three times a week for three weeks
Experimental: Nanoparticles were prepared similarly to those described above for Examples 1 and 6, but including the CTX targeting moiety as described in Example 6. […] Briefly, for synthesis of paclitaxel-loaded NPs, 100 mg mIII-62% in 2 mL DCM containing 2.5 mg LEXISCAN® and 20 mg paclitaxel was added dropwise to 4 mL 2.5% PVA under vortex and sonicated to form a oil/water emulsion. The emulsion was poured into a beaker containing 0.3% PVA and stirred for 3 h to evaporate DCM. NPs were collected by centrifugation at 20000 rpm for 30 min. The precipitate was suspended in PBS and reacted with thiolated CTX […] at room temperature. Nanoparticles were collected, suspended in H2O and lyophilized for storage and characterization.
In both studies, mice were treated with nanoparticles for three times a week for three weeks at a dose of 2 mg/mouse. It is believed that enhanced efficacy can be achieved with a higher dose treatment (maximum tolerated dose >15 mg per treatment) or with extended treatment time.

Structure (SMILES): CCNC(=O)[C@H]1O[C@@H](n2cnc3c(N)ncnc32)[C@H](O)[C@@H]1O [NECA, 1-(6-Amino-9H-purin-9-yl)-1-deoxy-N-ethyl-β-D-ribofuranuronamide]
- delivery of CTX-mHph2-III-62% NPs to the brain with encapsulated BBB modulator [1]: significantly enhanced delivery

Structure (SMILES): CNC(=O)c1cnn(-c2nc(N)c3ncn([C@@H]4O[C@H](CO)[C@@H](O)[C@H]4O)c3n2)c1 [Regadenoson, 2-{4-[(methylamino)carbonyl]-1H-pyrazol-1-yl}adenosine]
- Ki (A1 adenosine receptor): > 16.5 µM
- lower affinity for the A1 adenosine receptor than for A2A (A1 adenosine receptor): at least 10 fold
- delivery of CTX-mHph2-III-62% NPs to the brain with encapsulated BBB modulator [1]: significantly enhanced delivery
- affinity (A3 adenosine receptor): weak, if any
- affinity (A2B adenosine receptor): weak, if any

Structure (SMILES): CC(=O)O[C@H]1C(=O)[C@@]2(C)[C@H]([C@H](OC(=O)c3ccccc3)[C@]3(O)C[C@H](OC(=O)[C@H](O)[C@@H](NC(=O)c4ccccc4)c4ccccc4)C(C)=C1C3(C)C)[C@]1(OC(C)=O)CO[C@@H]1C[C@@H]2O [free paclitaxel, paclitaxel]
- median survival time [2]: 45 days

Structure (SMILES): Nc1cc(N2CCCCC2)nc(N)[n+]1[O-] [minoxidil]
- delivery of CTX-mHph2-III-62% NPs to the brain with encapsulated BBB modulator [1]: significantly enhanced delivery
